Data taken from article PMC5218480 (PLoS ONE, 2017).

Test system: MV-4-11 cells
Experiment: Gene expression microarray analysis (Affymetrix PrimeView) and GSEA
Format: cell-based, human
Design: RFU PODN (11730768_x_at) / Fold change /veh PODN (11730768_x_at) / RFU LINC00158 (11744669_a_at) / Fold change /veh LINC00158 (11744669_a_at) / RFU DUSP10 (11751237_a_at) / Fold change /veh DUSP10 (11751237_a_at) / RFU ID3 (11757404_x_at) / Fold change /veh ID3 (11757404_x_at) / RFU PLEKHG5 (11737974_s_at) / Fold change /veh PLEKHG5 (11737974_s_at) / RFU LRRC4B (11730491_at) / Fold change /veh LRRC4B (11730491_at) / RFU GIMAP4 (11747438_a_at) / Fold change /veh GIMAP4 (11747438_a_at) / RFU KRT8 (11758183_x_at) / Fold change /veh KRT8 (11758183_x_at) / RFU CNN1 (11734310_a_at) / Fold change /veh CNN1 (11734310_a_at) / RFU VPS37D (11726825_at) / Fold change /veh VPS37D (11726825_at) / RFU C10orf10 (11716522_x_at) / Fold change /veh C10orf10 (11716522_x_at) / RFU KIR2DL2 /// KIR2DL4 /// KIR2DL5A /// KIR2DL5B /// KIR2DS1 /// KIR2DS2 /// KIR2DS3 /// KIR2DS4 /// KIR3DL3 /// KIR3DL3 /// KIR3DS1 (11738374_at) / Fold change /veh KIR2DL2 /// KIR2DL4 /// KIR2DL5A /// KIR2DL5B /// KIR2DS1 /// KIR2DS2 /// KIR2DS3 /// KIR2DS4 /// KIR3DL3 /// KIR3DL3 /// KIR3DS1 (11738374_at) / RFU C1QL1 (11718748_at) / Fold change /veh C1QL1 (11718748_at) / RFU TMPRSS4 (11747572_a_at) / Fold change /veh TMPRSS4 (11747572_a_at) / RFU HAMP (11756126_x_at) / Fold change /veh HAMP (11756126_x_at) / RFU RNFT2 (11725882_a_at) / Fold change /veh RNFT2 (11725882_a_at) / RFU NR4A2 (11747474_a_at) / Fold change /veh NR4A2 (11747474_a_at) / RFU ABCC12 (11746883_a_at) / Fold change /veh ABCC12 (11746883_a_at) / RFU TMEM136 (11760407_x_at) / Fold change /veh TMEM136 (11760407_x_at) / RFU CLDN22 /// WWC2 (11732394_at) / Fold change /veh CLDN22 /// WWC2 (11732394_at) / RFU HLA-DPB1 (11760878_x_at) / Fold change /veh HLA-DPB1 (11760878_x_at) / RFU SPINT1 (11716480_a_at) / Fold change /veh SPINT1 (11716480_a_at) / RFU GAP43 (11754022_s_at) / Fold change /veh GAP43 (11754022_s_at) / RFU A4GNT (11735810_at) / Fold change /veh A4GNT (11735810_at) / RFU PRB3 (11715151_x_at) / Fold change /veh PRB3 (11715151_x_at) / RFU TUBB4B (11761932_at) / Fold change /veh TUBB4B (11761932_at) / RFU CAPN14 (11732068_a_at) / Fold change /veh CAPN14 (11732068_a_at) / RFU TMCC2 (11721928_a_at) / Fold change /veh TMCC2 (11721928_a_at) / RFU IRGQ (11745062_a_at) / Fold change /veh IRGQ (11745062_a_at) / RFU FAM174B (11720279_a_at) / Fold change /veh FAM174B (11720279_a_at) / RFU TMPRSS4 (11748680_a_at) / Fold change /veh TMPRSS4 (11748680_a_at) / RFU FAM212B (11763350_a_at) / Fold change /veh FAM212B (11763350_a_at) / RFU PLEKHG5 (11743358_a_at) / Fold change /veh PLEKHG5 (11743358_a_at) / RFU ZSCAN30 (11745921_a_at) / Fold change /veh ZSCAN30 (11745921_a_at) / RFU CMKLR1 (11741424_a_at) / Fold change /veh CMKLR1 (11741424_a_at) / RFU LOC101060620 /// MAPK8IP1 (11723275_at) / Fold change /veh LOC101060620 /// MAPK8IP1 (11723275_at) / RFU SPTSSB (11747773_x_at) / Fold change /veh SPTSSB (11747773_x_at) / RFU PRSS12 (11739890_at) / Fold change /veh PRSS12 (11739890_at) / RFU BIN1 (11741810_x_at) / Fold change /veh BIN1 (11741810_x_at) / RFU WNT11 (11732464_a_at) / Fold change /veh WNT11 (11732464_a_at) / RFU C10orf10 (11716521_a_at) / Fold change /veh C10orf10 (11716521_a_at) / RFU C5orf56 (11738089_at) / Fold change /veh C5orf56 (11738089_at) / RFU CYB561 (11721691_x_at) / Fold change /veh CYB561 (11721691_x_at) / RFU ANKRD19P (11752326_a_at) / Fold change /veh ANKRD19P (11752326_a_at) / RFU OR2T12 /// OR2T33 /// OR2T8 (11738714_s_at) / Fold change /veh OR2T12 /// OR2T33 /// OR2T8 (11738714_s_at) / RFU VCAN (11748164_a_at) / Fold change /veh VCAN (11748164_a_at) / RFU JSRP1 (11732532_at) / Fold change /veh JSRP1 (11732532_at) / RFU KRTAP10-11 (11738290_x_at) / Fold change /veh KRTAP10-11 (11738290_x_at) / RFU MYO3A (11730013_a_at) / Fold change /veh MYO3A (11730013_a_at) / RFU EBF3 (11725865_a_at) / Fold change /veh EBF3 (11725865_a_at) / RFU CAMK2N1 (11719241_x_at) / Fold change /veh CAMK2N1 (11719241_x_at) / RFU C5orf56 (11738088_a_at) / Fold change /veh C5orf56 (11738088_a_at) / RFU OLFML3 (11715873_a_at) / Fold change /veh OLFML3 (11715873_a_at) / RFU LOC100653217 /// NTM (11731650_a_at) / Fold change /veh LOC100653217 /// NTM (11731650_a_at) / RFU MAPK11 (11762145_a_at) / Fold change /veh MAPK11 (11762145_a_at) / RFU FIZ1 (11724087_x_at) / Fold change /veh FIZ1 (11724087_x_at) / RFU OASL (11726364_x_at) / Fold change /veh OASL (11726364_x_at) / RFU SOX15 (11748057_x_at) / Fold change /veh SOX15 (11748057_x_at) / RFU CD79A (11719716_a_at) / Fold change /veh CD79A (11719716_a_at) / RFU HIST1H1D (11736915_at) / Fold change /veh HIST1H1D (11736915_at) / RFU CASKIN2 (11723855_a_at) / Fold change /veh CASKIN2 (11723855_a_at) / RFU LOC730098 (11760151_x_at) / Fold change /veh LOC730098 (11760151_x_at) / RFU OR4N2 (11742367_at) / Fold change /veh OR4N2 (11742367_at) / RFU PRRT2 (11749266_a_at) / Fold change /veh PRRT2 (11749266_a_at) / RFU SNX32 (11753110_a_at) / Fold change /veh SNX32 (11753110_a_at) / RFU CDHR5 (11726645_a_at) / Fold change /veh CDHR5 (11726645_a_at) / RFU RCAN1 (11760418_a_at) / Fold change /veh RCAN1 (11760418_a_at) / RFU FAM167A (11723789_a_at) / Fold change /veh FAM167A (11723789_a_at) / RFU FAM26E (11764081_at) / Fold change /veh FAM26E (11764081_at) / RFU ISYNA1 (11749810_s_at) / Fold change /veh ISYNA1 (11749810_s_at) / RFU ACY1 (11761880_at) / Fold change /veh ACY1 (11761880_at) / RFU 11764098_at / Fold change /veh 11764098_at / RFU SAMD14 (11745864_x_at) / Fold change /veh SAMD14 (11745864_x_at) / RFU NPB (11741838_a_at) / Fold change /veh NPB (11741838_a_at) / RFU TMPRSS6 (11731388_a_at) / Fold change /veh TMPRSS6 (11731388_a_at) / RFU KRTAP10-2 (11738614_at) / Fold change /veh KRTAP10-2 (11738614_at) / RFU ARHGAP8 /// PRR5-ARHGAP8 (11727945_x_at) / Fold change /veh ARHGAP8 /// PRR5-ARHGAP8 (11727945_x_at) / RFU KRTAP5-7 /// NADSYN1 (11734609_at) / Fold change /veh KRTAP5-7 /// NADSYN1 (11734609_at) / RFU RASL12 (11751679_a_at) / Fold change /veh RASL12 (11751679_a_at) / RFU CDKN2B (11736163_a_at) / Fold change /veh CDKN2B (11736163_a_at) / RFU PRF1 (11729649_at) / Fold change /veh PRF1 (11729649_at) / RFU, ZNF638 /// ZNF638-IT1 / Fold change vs veh, ZNF638 /// ZNF638-IT1 / RFU, PANK3 / Fold change vs veh, PANK3 / RFU, SH3YL1 / Fold change vs veh, SH3YL1 / RFU, ZEB2 / Fold change vs veh, ZEB2 / RFU, NRIP1 / Fold change vs veh, NRIP1 / RFU, PTTG1IP / Fold change vs veh, PTTG1IP / RFU, CAPN2 / Fold change vs veh, CAPN2 / RFU, MED14 / Fold change vs veh, MED14 / RFU, SNORA58 / Fold change vs veh, SNORA58 / RFU, C1orf63 / Fold change vs veh, C1orf63 / RFU, LRRFIP1 / Fold change vs veh, LRRFIP1 / RFU, NDUFAF7 / Fold change vs veh, NDUFAF7 / RFU, SLC12A2 / Fold change vs veh, SLC12A2 / RFU, IBTK / Fold change vs veh, IBTK / RFU, ESF1 / Fold change vs veh, ESF1 / Fold change vs veh, TMEM50B / RFU, TAOK1 / Fold change vs veh, TAOK1 / RFU, ACBD3 / Fold change vs veh, ACBD3 / RFU, TMA16 / Fold change vs veh, TMA16 / RFU, RWDD3 / Fold change vs veh, RWDD3 / RFU, BCAT1 / Fold change vs veh, BCAT1 / RFU, EDEM3 / Fold change vs veh, EDEM3 / RFU, TMEM33 / Fold change vs veh, TMEM33 / RFU, WDR75 / Fold change vs veh, WDR75 / RFU, AHCTF1 / Fold change vs veh, AHCTF1 / RFU, TFRC / Fold change vs veh, TFRC / RFU, ZDHHC17 / Fold change vs veh, ZDHHC17 / RFU, NOM1 / Fold change vs veh, NOM1 / RFU, ARL8B / Fold change vs veh, ARL8B / RFU, ZBTB11 / Fold change vs veh, ZBTB11 / RFU, TAMM41 / Fold change vs veh, TAMM41 / RFU, KIAA1704 /// LOC100996395 / Fold change vs veh, KIAA1704 /// LOC100996395 / RFU, ING1 / Fold change vs veh, ING1 / RFU, TRMT61B / Fold change vs veh, TRMT61B / RFU, FUBP3 / Fold change vs veh, FUBP3 / RFU, TP53 / Fold change vs veh, TP53 / RFU, TNKS2 / Fold change vs veh, TNKS2 / RFU, ZFP14 / Fold change vs veh, ZFP14 / RFU, ACTR2 / Fold change vs veh, ACTR2 / RFU, PPP3R1 / Fold change vs veh, PPP3R1 / RFU, PIK3R1 / Fold change vs veh, PIK3R1 / RFU, HNRNPA1 / Fold change vs veh, HNRNPA1 / RFU, RNF170 / Fold change vs veh, RNF170 / RFU, ZNF28 / Fold change vs veh, ZNF28 / RFU, RNGTT / Fold change vs veh, RNGTT / RFU, OGT / Fold change vs veh, OGT / RFU, BRD1 / Fold change vs veh, BRD1 / RFU, MARS / Fold change vs veh, MARS / RFU, ZNF655 / Fold change vs veh, ZNF655 / RFU, FAHD1 / Fold change vs veh, FAHD1 / RFU, BDP1 / Fold change vs veh, BDP1 / RFU, LRRCC1 / Fold change vs veh, LRRCC1 / RFU, ARID1A / Fold change vs veh, ARID1A / RFU, ZNF146 / Fold change vs veh, ZNF146 / RFU, ZNF330 / Fold change vs veh, ZNF330 / RFU, GPN3 / Fold change vs veh, GPN3 / RFU, C9orf123 / Fold change vs veh, C9orf123 / RFU, N4BP2L2 / Fold change vs veh, N4BP2L2 / RFU, ARFIP1 / Fold change vs veh, ARFIP1 / RFU, FAM179B / Fold change vs veh, FAM179B / RFU, BCL10 / Fold change vs veh, BCL10 / RFU, UHRF1BP1L / Fold change vs veh, UHRF1BP1L / RFU, BET1 / Fold change vs veh, BET1 / RFU, CNOT2 / Fold change vs veh, CNOT2 / RFU, ZNF268 / Fold change vs veh, ZNF268 / Fold change vs veh, ZNF507 / RFU, DGCR2 / Fold change vs veh, DGCR2 / RFU, WDSUB1 / Fold change vs veh, WDSUB1 / Fold change vs veh, HSP90B1 /// MIR3652 / RFU, ADSS / Fold change vs veh, ADSS / RFU, GK / Fold change vs veh, GK / RFU, ZNF148 / Fold change vs veh, ZNF148 / RFU, TAF9 / Fold change vs veh, TAF9 / RFU, SLC1A5 / Fold change vs veh, SLC1A5 / RFU, SLMO2 / Fold change vs veh, SLMO2 / RFU, ABCC4 / Fold change vs veh, ABCC4 / RFU, LOC101060439 /// RAP1B / Fold change vs veh, LOC101060439 /// RAP1B / RFU, RFX7 / Fold change vs veh, RFX7 / RFU, GTPBP10 / Fold change vs veh, GTPBP10 / RFU, CNEP1R1 / Fold change vs veh, CNEP1R1 / RFU, BIVM-ERCC5 /// ERCC5 / Fold change vs veh, BIVM-ERCC5 /// ERCC5 / RFU, ILF3 / Fold change vs veh, ILF3 / RFU 11762660_at / Fold change /veh 11762660_at / RFU VCAN (11757783_s_at) / Fold change /veh VCAN (11757783_s_at) / RFU DDX43 (11728927_at) / Fold change /veh DDX43 (11728927_at) / RFU KRT8 (11758188_x_at) / Fold change /veh KRT8 (11758188_x_at) / RFU NKD1 (11759106_at) / Fold change /veh NKD1 (11759106_at) / RFU SRD5A1 (11742802_a_at) / Fold change /veh SRD5A1 (11742802_a_at) / RFU TPSAB1 /// TPSB2 (11721975_s_at) / Fold change /veh TPSAB1 /// TPSB2 (11721975_s_at) / RFU GSTM3 (11746129_a_at) / Fold change /veh GSTM3 (11746129_a_at) / RFU IL23R (11737362_x_at) / Fold change /veh IL23R (11737362_x_at) / RFU TMEM51 (11727254_a_at) / Fold change /veh TMEM51 (11727254_a_at) / RFU PIWIL2 (11732686_x_at) / Fold change /veh PIWIL2 (11732686_x_at) / RFU ORM1 (11744905_x_at) / Fold change /veh ORM1 (11744905_x_at) / RFU CCDC152 (11743942_at) / Fold change /veh CCDC152 (11743942_at) / RFU ECM1 (11717891_a_at) / Fold change /veh ECM1 (11717891_a_at) / RFU IL23R (11748794_a_at) / Fold change /veh IL23R (11748794_a_at) / RFU TNFAIP8L3 (11732012_x_at) / Fold change /veh TNFAIP8L3 (11732012_x_at) / RFU MBOAT4 (11741988_at) / Fold change /veh MBOAT4 (11741988_at) / RFU 11764193_at / Fold change /veh 11764193_at / RFU TMEM53 (11763286_at) / Fold change /veh TMEM53 (11763286_at) / RFU MAGEB2 (11727129_at) / Fold change /veh MAGEB2 (11727129_at) / RFU TMEM200A (11744735_a_at) / Fold change /veh TMEM200A (11744735_a_at) / RFU CCDC152 (11751479_a_at) / Fold change /veh CCDC152 (11751479_a_at) / RFU FAM211A (11726209_a_at) / Fold change /veh FAM211A (11726209_a_at) / RFU RGS16 (11746705_a_at) / Fold change /veh RGS16 (11746705_a_at) / RFU VCAN (11755009_s_at) / Fold change /veh VCAN (11755009_s_at) / RFU RHOB (11743442_s_at) / Fold change /veh RHOB (11743442_s_at) / RFU RGS16 (11720943_a_at) / Fold change /veh RGS16 (11720943_a_at) / RFU RGS16 (11720944_at) / Fold change /veh RGS16 (11720944_at) / RFU, VPS4B / Fold change vs veh, VPS4B / RFU, CREB1 / Fold change vs veh, CREB1 / RFU, DNAJC13 / Fold change vs veh, DNAJC13 / RFU, GNAQ / Fold change vs veh, GNAQ / RFU, CDK5R1 / Fold change vs veh, CDK5R1 / RFU, ZRANB3 / Fold change vs veh, ZRANB3 / RFU, CUL4A / Fold change vs veh, CUL4A / RFU, CCNY / Fold change vs veh, CCNY / RFU, UFL1 / Fold change vs veh, UFL1 / RFU, COG3 / Fold change vs veh, COG3 / RFU, DIAPH2 / Fold change vs veh, DIAPH2 / RFU, SKA2 / Fold change vs veh, SKA2 / RFU, AFF3 / Fold change vs veh, AFF3 / RFU, LMF1 / Fold change vs veh, LMF1 / RFU, IPO11 / Fold change vs veh, IPO11 / RFU, DFFB / Fold change vs veh, DFFB / RFU, FOXP1 / Fold change vs veh, FOXP1 / RFU, CARD8 / Fold change vs veh, CARD8 / RFU, STRN3 / Fold change vs veh, STRN3 / RFU, ADK / Fold change vs veh, ADK / RFU, RASSF2 / Fold change vs veh, RASSF2 / RFU, WIPF1 / Fold change vs veh, WIPF1 / RFU, LARP1B / Fold change vs veh, LARP1B / RFU, RASA1 / Fold change vs veh, RASA1 / RFU, RB1 / Fold change vs veh, RB1 / RFU, PPFIA1 / Fold change vs veh, PPFIA1 / RFU, MAT2A / Fold change vs veh, MAT2A / RFU, CCT5 / Fold change vs veh, CCT5 / RFU, WDR92 / Fold change vs veh, WDR92 / RFU, CUX1 / Fold change vs veh, CUX1 / RFU, TTC7A / Fold change vs veh, TTC7A / RFU, TMEM135 / Fold change vs veh, TMEM135 / RFU, DEPTOR / Fold change vs veh, DEPTOR / RFU, CPM / Fold change vs veh, CPM / RFU, DNAJB6 / Fold change vs veh, DNAJB6 / RFU, CACNA2D3 / Fold change vs veh, CACNA2D3 / RFU, DTX4 / Fold change vs veh, DTX4 / RFU, TFCP2 / Fold change vs veh, TFCP2 / RFU, GMCL1 /// GMCL1P1 / Fold change vs veh, GMCL1 /// GMCL1P1 / RFU, AEBP2 / Fold change vs veh, AEBP2 / RFU, SNHG1 /// SNORD22 /// SNORD25 /// SNORD26 /// SNORD27 /// SNORD28 /// SNORD29 /// SNORD31 / Fold change vs veh, SNHG1 /// SNORD22 /// SNORD25 /// SNORD26 /// SNORD27 /// SNORD28 /// SNORD29 /// SNORD31 / Fold change (Aza/veh), C12orf56 (ProbeSet 11735607_a_at) / Fold change (ACY-1035/veh), C12orf56 (ProbeSet 11735607_a_at) / Fold change (Aza/veh), FGFR1OP (ProbeSet 11751329_s_at) / Fold change (ACY-1035/veh), FGFR1OP (ProbeSet 11751329_s_at) / Fold change (Aza/veh), VPS36 (ProbeSet 11739960_a_at) / Fold change (ACY-1035/veh), VPS36 (ProbeSet 11739960_a_at) / RFU SYPL1 (11715823_x_at) / Fold change /veh SYPL1 (11715823_x_at) / RFU IGFBP7 (11715501_s_at) / Fold change /veh IGFBP7 (11715501_s_at) / RFU REEP3 (11722064_at) / Fold change /veh REEP3 (11722064_at) / RFU IGLL1 (11728026_x_at) / Fold change /veh IGLL1 (11728026_x_at): dose or concentration left out as unconfirmed
Conditions: MV-4-11 cells, 48 hours

SMILES: Nc1ccc(-c2cccs2)cc1NC(=O)c1ccc2c(c1)cc(C1CC1)n2CCN1CCOCC1 [ACY-1035]
- RFU ARHGAP8 /// PRR5-ARHGAP8 (11727945_x_at): 101.90 RFU
